Data reported in ChEMBL document CHEMBL4177553, “Rapid screening the potential mechanism-based inhibitors of CYP3A4 from Tripterygium wilfordi based on computer approaches combined with in vitro bioassay” (Bioorg Med Chem, 2017).

Columns and labels:
Cytochrome P450 3A4 [1] = target: T1, Cytochrome P450 3A4 (Homo sapiens, UniProt P08684); experiment: Inhibition of CYP3A4 in human liver microsomes assessed as reduction in formation of midazolam to 1-Hydroxy midazolam at 50 uM preincubated for 30 mins followed by substrate addition measured after 15 mins in presence of NADPH by UPLC-MS analysis; type: ADME; conditions: 0.25 h
T1 sequence (P08684 whole entry): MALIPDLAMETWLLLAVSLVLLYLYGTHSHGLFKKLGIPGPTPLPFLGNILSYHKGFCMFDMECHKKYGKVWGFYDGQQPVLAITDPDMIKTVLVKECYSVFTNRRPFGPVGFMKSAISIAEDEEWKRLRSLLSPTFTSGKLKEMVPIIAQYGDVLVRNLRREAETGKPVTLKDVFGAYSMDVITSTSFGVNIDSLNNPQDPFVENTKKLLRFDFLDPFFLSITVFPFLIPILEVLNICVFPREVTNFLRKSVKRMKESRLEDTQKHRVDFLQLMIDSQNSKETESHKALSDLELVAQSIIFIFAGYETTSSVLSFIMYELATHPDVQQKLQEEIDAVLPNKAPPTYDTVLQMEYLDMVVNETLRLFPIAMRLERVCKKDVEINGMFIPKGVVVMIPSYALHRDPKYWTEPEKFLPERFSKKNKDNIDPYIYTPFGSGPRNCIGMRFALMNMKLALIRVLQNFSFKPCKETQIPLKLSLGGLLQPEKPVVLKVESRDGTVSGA

Cytochrome P450 1A2 = target: T2, Cytochrome P450 1A2 (Homo sapiens, UniProt P05177); experiment: Inhibition of CYP1A2 in human liver microsomes assessed as reduction in formation of phenacetin to acetaminophen at 50 uM preincubated for 30 mins followed by substrate addition measured after 15 mins in presence of NADPH by UPLC-MS analysis; type: ADME; conditions: 0.25 h
T2 sequence (P05177 whole entry): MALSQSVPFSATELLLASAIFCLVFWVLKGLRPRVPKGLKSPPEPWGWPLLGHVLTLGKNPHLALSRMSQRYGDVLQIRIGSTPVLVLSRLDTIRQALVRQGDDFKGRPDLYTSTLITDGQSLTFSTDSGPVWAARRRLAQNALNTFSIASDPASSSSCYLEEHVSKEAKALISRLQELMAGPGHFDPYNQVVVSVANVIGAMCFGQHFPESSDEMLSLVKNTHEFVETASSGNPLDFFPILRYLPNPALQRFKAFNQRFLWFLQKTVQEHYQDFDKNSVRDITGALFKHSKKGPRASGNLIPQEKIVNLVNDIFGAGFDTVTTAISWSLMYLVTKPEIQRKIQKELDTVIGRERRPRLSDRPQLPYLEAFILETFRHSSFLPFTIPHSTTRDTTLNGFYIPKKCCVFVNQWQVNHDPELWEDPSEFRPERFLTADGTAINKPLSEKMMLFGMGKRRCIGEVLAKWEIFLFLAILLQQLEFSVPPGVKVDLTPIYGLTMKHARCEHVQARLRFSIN

Cytochrome P450 2C9 = Cytochrome P450 2C9 (Homo sapiens, UniProt P11712); experiment: Inhibition of CYP2C9 in human liver microsomes assessed as reduction in formation of tolbutamide to 4-Hydroxytolbutamide at 50 uM preincubated for 30 mins followed by substrate addition measured after 15 mins in presence of NADPH by UPLC-MS analysis; type: ADME; conditions: 0.25 h
Chain of Cytochrome P450 2C9 (P11712 whole entry): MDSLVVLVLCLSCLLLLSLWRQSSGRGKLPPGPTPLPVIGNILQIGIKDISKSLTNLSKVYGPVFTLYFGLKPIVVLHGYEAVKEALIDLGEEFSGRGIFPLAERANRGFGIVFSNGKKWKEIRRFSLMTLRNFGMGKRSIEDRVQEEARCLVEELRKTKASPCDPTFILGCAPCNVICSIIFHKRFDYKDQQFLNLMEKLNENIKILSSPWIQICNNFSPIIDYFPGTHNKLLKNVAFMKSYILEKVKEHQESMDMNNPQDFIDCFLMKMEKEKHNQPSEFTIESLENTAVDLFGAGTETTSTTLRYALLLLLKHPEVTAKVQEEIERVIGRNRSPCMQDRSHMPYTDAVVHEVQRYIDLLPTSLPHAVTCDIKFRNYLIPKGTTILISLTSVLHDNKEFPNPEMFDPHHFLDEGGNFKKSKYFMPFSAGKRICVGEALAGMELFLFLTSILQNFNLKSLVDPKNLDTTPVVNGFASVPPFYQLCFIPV

Cytochrome P450 2C19 = Cytochrome P450 2C19 (Homo sapiens, UniProt P33261); experiment: Inhibition of CYP2C19 in human liver microsomes assessed as reduction in formation of mephenytoin to 4-Hydroxy mephenytoin at 50 uM preincubated for 30 mins followed by substrate addition measured after 15 mins in presence of NADPH by UPLC-MS analysis; type: ADME; conditions: 0.25 h
Chain of Cytochrome P450 2C19 (P33261 whole entry): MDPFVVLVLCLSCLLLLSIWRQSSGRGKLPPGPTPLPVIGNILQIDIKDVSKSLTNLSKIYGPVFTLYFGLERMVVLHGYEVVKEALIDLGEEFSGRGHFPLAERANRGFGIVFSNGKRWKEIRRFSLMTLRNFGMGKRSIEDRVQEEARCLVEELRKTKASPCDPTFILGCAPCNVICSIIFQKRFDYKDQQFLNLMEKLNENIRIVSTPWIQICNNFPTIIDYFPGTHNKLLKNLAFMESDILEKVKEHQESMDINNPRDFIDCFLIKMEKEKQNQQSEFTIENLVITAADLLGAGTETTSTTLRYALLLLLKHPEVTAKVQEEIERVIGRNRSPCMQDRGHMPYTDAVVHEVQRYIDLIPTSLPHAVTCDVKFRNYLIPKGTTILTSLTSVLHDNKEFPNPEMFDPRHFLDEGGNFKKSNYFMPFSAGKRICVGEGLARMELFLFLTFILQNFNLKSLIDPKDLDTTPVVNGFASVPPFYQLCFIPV

Cytochrome P450 2D6 = Cytochrome P450 2D6 (Homo sapiens, UniProt P10635); experiment: Inhibition of CYP2D6 in human liver microsomes assessed as reduction in formation of dextromethorphan to dextrorphan at 50 uM preincubated for 30 mins followed by substrate addition measured after 15 mins in presence of NADPH by UPLC-MS analysis; type: ADME; conditions: 0.25 h
Chain of Cytochrome P450 2D6 (P10635 whole entry): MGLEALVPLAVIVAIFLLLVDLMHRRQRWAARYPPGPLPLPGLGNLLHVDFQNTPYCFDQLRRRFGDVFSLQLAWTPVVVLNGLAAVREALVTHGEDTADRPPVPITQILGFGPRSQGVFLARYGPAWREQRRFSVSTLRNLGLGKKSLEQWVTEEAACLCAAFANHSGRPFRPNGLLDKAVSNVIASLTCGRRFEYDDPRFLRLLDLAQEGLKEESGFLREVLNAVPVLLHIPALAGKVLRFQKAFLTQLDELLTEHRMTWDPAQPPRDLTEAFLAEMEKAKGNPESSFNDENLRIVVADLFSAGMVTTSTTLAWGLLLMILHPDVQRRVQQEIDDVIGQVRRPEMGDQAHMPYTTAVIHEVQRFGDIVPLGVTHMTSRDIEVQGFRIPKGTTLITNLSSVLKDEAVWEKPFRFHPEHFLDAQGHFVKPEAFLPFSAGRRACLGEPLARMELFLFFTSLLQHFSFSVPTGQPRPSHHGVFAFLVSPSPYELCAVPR

Cytochrome P450 2E1 = Cytochrome P450 2E1 (Homo sapiens, UniProt P05181); experiment: Inhibition of CYP2E1 in human liver microsomes assessed as reduction in formation of chlorzoxazone to 6-Hydroxy chlorzoxazone at 50 uM preincubated for 30 mins followed by substrate addition measured after 15 mins in presence of NADPH by UPLC-MS analysis; type: ADME; conditions: 0.25 h
Chain of Cytochrome P450 2E1 (P05181 whole entry): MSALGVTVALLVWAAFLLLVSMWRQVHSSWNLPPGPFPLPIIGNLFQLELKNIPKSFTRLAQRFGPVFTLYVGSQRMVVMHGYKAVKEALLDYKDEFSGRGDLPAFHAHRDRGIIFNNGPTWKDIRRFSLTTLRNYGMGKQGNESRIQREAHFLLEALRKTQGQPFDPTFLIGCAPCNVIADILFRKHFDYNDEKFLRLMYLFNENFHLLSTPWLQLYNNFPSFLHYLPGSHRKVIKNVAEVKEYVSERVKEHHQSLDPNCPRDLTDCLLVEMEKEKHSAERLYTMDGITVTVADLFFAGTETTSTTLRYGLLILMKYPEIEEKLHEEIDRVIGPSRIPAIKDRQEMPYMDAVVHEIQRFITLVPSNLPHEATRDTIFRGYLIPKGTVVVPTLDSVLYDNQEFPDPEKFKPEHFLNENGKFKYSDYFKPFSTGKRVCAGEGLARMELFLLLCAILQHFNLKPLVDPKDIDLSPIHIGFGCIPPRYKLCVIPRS

Cytochrome P450 3A4 [2] = target: T1, Cytochrome P450 3A4; experiment: Inhibition of CYP3A4 in human liver microsomes assessed as reduction in formation of midazolam to 1-Hydroxy midazolam preincubated for 30 mins followed by substrate addition measured after 15 mins in presence of NADPH by UPLC-MS analysis; type: ADME; conditions: 0.25 h
Cytochrome P450 3A4 [3] = target: T1, Cytochrome P450 3A4; experiment: Inhibition of CYP3A4 in human liver microsomes assessed as reduction in formation of midazolam to 1-Hydroxy midazolam at 50 uM preincubated for 30 mins followed by substrate addition measured after 15 mins in presence of varying levels of NADPH by UPLC-MS analysis; type: ADME; conditions: 0.25 h
Cytochrome P450 3A4 [4] = target: T1, Cytochrome P450 3A4; experiment: Drug metabolism in human liver microsomes assessed as CYP3A4-mediated M1 metabolite formation at […] preincubated for 5 mins followed by NADPH addition measured after 2 hrs by UPLC-MS/MS analysis; type: ADME
Cytochrome P450 3A4 [5] = target: T1, Cytochrome P450 3A4; experiment: Drug metabolism in human liver microsomes assessed as CYP3A4-mediated M2 metabolite formation at […] preincubated for 5 mins followed by NADPH addition measured after 2 hrs by UPLC-MS/MS analysis; type: ADME
[6] = Retention time of the compound in human liver microsomes by UPLC-MS/MS analysis; type: ADME, microsome
[7] = Drug metabolism in human liver microsomes assessed as monohydroxy formation in presence of GSH and water by UPLC-MS/MS analysis; type: ADME, microsome
Cytochrome P450 3A4 [8] = target: T1, Cytochrome P450 3A4; experiment: Drug metabolism in human liver microsomes assessed as CYP3A4-mediated metabolite formation at […] preincubated for 5 mins followed by NADPH addition measured after 2 hrs by UPLC-MS/MS analysis; type: ADME

CC(=O)OC[C@]12[C@H](OC(C)=O)[C@H](OC(C)=O)[C@@H]3[C@@H](OC(C)=O)[C@@]14O[C@@]3(C)COC(=O)c1cccnc1CC[C@@](C)(O)C(=O)O[C@@H]([C@H](OC(=O)c1ccoc1)[C@@H]2OC(C)=O)[C@]4(C)O
inhibition (INH) (Cytochrome P450 3A4 [1]): Active
inhibition (INH) (Cytochrome P450 1A2): Not Active
inhibition (INH) (Cytochrome P450 2C9): Not Active
inhibition (INH) (Cytochrome P450 2C19): Not Active
inhibition (INH) (Cytochrome P450 2D6): Not Active
inhibition (INH) (Cytochrome P450 2E1): Not Active
inhibition (INH) (Cytochrome P450 3A4 [2]): Dose-dependent effect
inhibition (INH) (Cytochrome P450 3A4 [3]): Active
Drug metabolism (Cytochrome P450 3A4 [4]): Metabolite_Detected
Drug metabolism (Cytochrome P450 3A4 [5]): Metabolite_Detected
Retention_time [6]: 10.55 min
Drug metabolism [7]: Metabolite_Detected

CC(=O)OC[C@]12[C@H](OC(C)=O)[C@H](OC(C)=O)[C@@H]3[C@@H](OC(C)=O)[C@@]14O[C@@]3(C)COC(=O)c1cccnc1CCC(C)C(=O)O[C@@H]([C@H](OC(=O)c1ccoc1)[C@@H]2OC(C)=O)[C@]4(C)O (stereo not given in full)
inhibition (INH) (Cytochrome P450 3A4 [1]): Active
inhibition (INH) (Cytochrome P450 1A2): Not Active
inhibition (INH) (Cytochrome P450 2C9): Not Active
inhibition (INH) (Cytochrome P450 2C19): Not Active
inhibition (INH) (Cytochrome P450 2D6): Not Active
inhibition (INH) (Cytochrome P450 2E1): Not Active
inhibition (INH) (Cytochrome P450 3A4 [3]): Not Active
Drug metabolism (Cytochrome P450 3A4 [8]): Metabolite_Notdetected

CC(=O)OC[C@]12[C@H](OC(C)=O)[C@H](OC(C)=O)[C@@H]3[C@@H](OC(C)=O)[C@@]14O[C@@]3(C)COC(=O)c1cccnc1CC[C@H](C)C(=O)O[C@@H]([C@H](OC(=O)c1ccccc1)[C@@H]2OC(C)=O)[C@]4(C)O
inhibition (INH) (Cytochrome P450 3A4 [1]): Active
inhibition (INH) (Cytochrome P450 1A2): Active
inhibition (INH) (Cytochrome P450 2C9): Active
inhibition (INH) (Cytochrome P450 2C19): Active
inhibition (INH) (Cytochrome P450 2D6): Active
inhibition (INH) (Cytochrome P450 2E1): Active

CC(=O)OC[C@@]12[C@H](OC(C)=O)[C@H](OC(C)=O)[C@@H]3[C@@H](OC(C)=O)[C@@]14O[C@@]3(C)COC(=O)c1cccnc1[C@@H](C)[C@H](C)C(=O)O[C@@H]([C@H](OC(C)=O)[C@@H]2OC(C)=O)[C@]4(C)O
inhibition (INH) (Cytochrome P450 3A4 [1]): Active
inhibition (INH) (Cytochrome P450 1A2): Not Active
inhibition (INH) (Cytochrome P450 2C9): Not Active
inhibition (INH) (Cytochrome P450 2C19): Not Active
inhibition (INH) (Cytochrome P450 2D6): Not Active
inhibition (INH) (Cytochrome P450 2E1): Not Active
inhibition (INH) (Cytochrome P450 3A4 [3]): Not Active
Drug metabolism (Cytochrome P450 3A4 [8]): Metabolite_Notdetected

CC(=O)OC[C@]12[C@H](OC(C)=O)[C@H](OC(C)=O)[C@@H]3[C@@H](OC(C)=O)[C@@]14O[C@@]3(C)COC(=O)c1cccnc1CC[C@@](C)(O)C(=O)O[C@@H]([C@H](OC(=O)c1ccccc1)[C@@H]2OC(C)=O)[C@]4(C)O
inhibition (INH) (Cytochrome P450 3A4 [1]): Active
inhibition (INH) (Cytochrome P450 1A2): Active
inhibition (INH) (Cytochrome P450 2C9): Active
inhibition (INH) (Cytochrome P450 2C19): Active
inhibition (INH) (Cytochrome P450 2D6): Active
inhibition (INH) (Cytochrome P450 2E1): Active
